Measured values taken from patent US9376429B2, “Sodium channel blockers, preparation method thereof and use thereof” (Daewoong Pharmaceutical Co., Ltd., priority 2012, dated 2016).

How the values were obtained:
[1] = molecular target: T1, sodium ion channel (Nav1.7) (Homo sapiens, UniProt Q15858); assay: Blocking effect against sodium ion channel (Nav1.7), IonFlux16 auto patch clamp, hNav1.7 HEK293 cells; type: cell-based; conditions: peak current after 50 seconds treatment, eight concentrations
T1 construct: host or cells: HEK293
T1 sequence (Q15858 whole entry): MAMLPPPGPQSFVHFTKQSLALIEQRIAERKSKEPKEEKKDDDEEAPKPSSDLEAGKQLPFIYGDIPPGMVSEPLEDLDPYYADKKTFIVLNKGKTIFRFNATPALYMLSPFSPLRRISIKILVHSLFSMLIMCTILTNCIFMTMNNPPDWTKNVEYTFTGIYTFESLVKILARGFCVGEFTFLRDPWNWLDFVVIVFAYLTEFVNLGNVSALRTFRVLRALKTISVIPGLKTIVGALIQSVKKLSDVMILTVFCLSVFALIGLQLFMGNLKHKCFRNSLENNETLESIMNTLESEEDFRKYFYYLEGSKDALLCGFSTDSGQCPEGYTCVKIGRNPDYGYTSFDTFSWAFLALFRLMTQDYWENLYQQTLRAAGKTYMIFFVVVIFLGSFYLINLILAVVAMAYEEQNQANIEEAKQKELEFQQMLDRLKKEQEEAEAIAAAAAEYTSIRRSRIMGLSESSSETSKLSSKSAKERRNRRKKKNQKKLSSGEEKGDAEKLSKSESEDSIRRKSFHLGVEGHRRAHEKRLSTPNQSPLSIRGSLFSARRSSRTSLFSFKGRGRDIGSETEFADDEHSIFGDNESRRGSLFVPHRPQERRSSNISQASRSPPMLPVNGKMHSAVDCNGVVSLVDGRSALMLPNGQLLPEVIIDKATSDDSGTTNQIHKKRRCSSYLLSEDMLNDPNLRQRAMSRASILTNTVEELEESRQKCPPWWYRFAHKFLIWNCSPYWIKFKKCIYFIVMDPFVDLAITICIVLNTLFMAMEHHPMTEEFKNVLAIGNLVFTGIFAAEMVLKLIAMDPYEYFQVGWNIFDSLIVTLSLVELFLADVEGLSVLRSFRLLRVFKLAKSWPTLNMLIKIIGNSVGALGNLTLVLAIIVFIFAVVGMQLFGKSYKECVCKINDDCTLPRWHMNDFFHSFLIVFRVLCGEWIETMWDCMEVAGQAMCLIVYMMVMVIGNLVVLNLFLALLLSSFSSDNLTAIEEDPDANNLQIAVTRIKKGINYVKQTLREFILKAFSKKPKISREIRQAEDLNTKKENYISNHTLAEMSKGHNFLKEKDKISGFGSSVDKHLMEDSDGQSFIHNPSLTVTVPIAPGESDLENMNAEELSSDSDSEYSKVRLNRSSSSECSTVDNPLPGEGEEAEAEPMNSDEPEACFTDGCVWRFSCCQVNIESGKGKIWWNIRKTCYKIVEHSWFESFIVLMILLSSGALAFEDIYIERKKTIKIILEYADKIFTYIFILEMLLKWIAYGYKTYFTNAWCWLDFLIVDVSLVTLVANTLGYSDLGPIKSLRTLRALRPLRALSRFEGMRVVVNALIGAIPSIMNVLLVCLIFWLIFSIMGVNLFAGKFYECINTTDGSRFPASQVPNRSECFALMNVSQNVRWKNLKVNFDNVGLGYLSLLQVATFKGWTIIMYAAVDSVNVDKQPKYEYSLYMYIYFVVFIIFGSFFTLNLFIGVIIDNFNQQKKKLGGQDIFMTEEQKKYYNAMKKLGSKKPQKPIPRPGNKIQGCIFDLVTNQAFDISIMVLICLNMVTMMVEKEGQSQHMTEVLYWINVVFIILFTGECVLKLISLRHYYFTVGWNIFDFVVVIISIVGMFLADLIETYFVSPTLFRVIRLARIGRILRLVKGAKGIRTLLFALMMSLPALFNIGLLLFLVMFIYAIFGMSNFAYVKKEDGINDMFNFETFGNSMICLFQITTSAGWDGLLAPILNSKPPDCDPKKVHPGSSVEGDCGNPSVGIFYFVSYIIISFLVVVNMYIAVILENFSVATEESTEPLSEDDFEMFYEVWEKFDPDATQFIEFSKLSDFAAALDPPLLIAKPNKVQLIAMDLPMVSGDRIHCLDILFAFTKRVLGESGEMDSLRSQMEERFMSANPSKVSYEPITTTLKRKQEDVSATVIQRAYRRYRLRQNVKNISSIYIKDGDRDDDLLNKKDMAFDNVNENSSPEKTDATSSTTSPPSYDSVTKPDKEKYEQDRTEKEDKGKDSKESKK
In short: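 HEK293 cells stably expressing human Nav1.7 were recorded by IonFlux16 automated patch clamp in extracellular solution (pH 7.45, final DMSO ≤0.3%). Peak current was measured after 50 s exposure to each of eight compound concentrations and expressed as percent inhibition relative to pre-compound current.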

[2] = neuropathic pain patients; cited from earlier work

In the case of `O=S(=O)(Nc1nccs1)c1ccc(C(O)c2ccc(-c3ccc(F)nc3)cc2-c2ccoc2)cc1` (centres unmarked) [Example 151, 4-((4-(6-fluoropyridin-3-yl)-2-(furan-3-yl)phenyl)(hydroxy)methyl)-N-(thiazol-2-yl)benzenesulfonamide], the IC50 [1] is reported as > 100 nM.

With `O=S(=O)(Nc1nccs1)c1ccc(C(O)c2ccc(-c3ccccc3F)cc2-c2ccoc2)cc1` (centres unmarked) [Example 152, 4-((2′-fluoro-3-(furan-3-yl)-[1,1′-biphenyl]-4-yl)(hydroxy)methyl)-N-(thiazol-2-yl)benzenesulfonamide] the IC50 [1] was > 100 nM.

`O=S(=O)(Nc1nccs1)c1ccc(C(O)c2ccc(-c3cccc(F)c3)cc2-c2ccoc2)cc1` (centres unmarked) [Example 153, 4-((3′-fluoro-3-(furan-3-yl)-[1,1′-biphenyl]-4-yl)(hydroxy)methyl)-N-(thiazol-2-yl)benzenesulfonamide] gave an IC50 [1] of 51 to 100 nM.

With `O=S(=O)(Nc1nccs1)c1ccc(C(O)c2ccc(-c3ccc(F)cc3)cc2-c2ccoc2)cc1` (centres unmarked) [Example 154, 4-((4′-fluoro-3-(furan-3-yl)-[1,1′-biphenyl]-4-yl)(hydroxy)methyl)-N-(thiazol-2-yl)benzenesulfonamide] the IC50 [1] was > 100 nM.

With `O=S(=O)(Nc1nccs1)c1ccc(C(O)c2cccnc2-c2ccoc2)c(F)c1` (centres unmarked) [Example 155, 3-fluoro-4-((2-(furan-3-yl)pyridin-3-yl)(hydroxy)methyl)-N-(thiazol-2-yl)benzenesulfonamide] the IC50 [1] was > 100 nM.

In the case of `O=S(=O)(Nc1nccs1)c1ccc(C(O)c2cccnc2-c2ccoc2)cc1` (centres unmarked) [Example 156, 4-((2-(furan-3-yl)pyridin-3-yl)(hydroxy)methyl)-N-(thiazol-2-yl)benzenesulfonamide], the IC50 [1] is reported as > 100 nM.

In the case of `O=S(=O)(Nc1nccs1)c1ccc(C(O)c2cccnc2-c2ccccc2)c(F)c1` (centres unmarked) [Example 157, 3-fluoro-4-(hydroxy(2-phenylpyridin-3-yl)methyl)-N-(thiazol-2-yl)benzenesulfonamide], the IC50 [1] is reported as > 100 nM.

In the case of `NCC1(CC(=O)O)CCCCC1` [gabapentin], the “effective for share of the patients” value [2] is given as 60%.
